Reference: ChEMBL document CHEMBL2029206, “Design, synthesis and biological evaluation of potent NAD+-dependent DNA ligase inhibitors as potential antibacterial agents. Part 2: 4-amino-pyrido[2,3-d]pyrimidin-5(8H)-ones” (Bioorg Med Chem Lett, 2012)
pIC50: −log10 of the molar value. Converted amounts (≈) assume the structure as drawn. The source made the active and inactive calls. No cut-off for these calls is given here.

Columns and labels:
[1] = Inhibition of Escherichia coli NAD+dependent DNA ligase
[2] = system: Staphylococcus aureus; assay: Antibacterial activity against Staphylococcus aureus ATCC 29213; type: functional
[3] = system: Escherichia coli; assay: Antibacterial activity against wild-type Escherichia coli; type: functional, organism-based
[4] = system: Streptococcus pneumoniae; assay: Antibacterial activity against Streptococcus pneumoniae ATCC 10015; type: functional
[5] = Inhibition of human ATP-dependent DNA ligase
[6] = system: Haemophilus influenzae; assay: Antibacterial activity against Haemophilus influenzae ATCC 51907; type: functional

Structure (SMILES)	pIC50 [1]	MIC [2]	MIC [4]	pIC50 [5]	MIC [6]	Activity [3]
Nc1nc(OC2CCC(C(F)(F)F)CC2)nc2c1c(=O)ccn2[C@H]1CCC[C@@H]1O (relative stereo)	6.46	50 µM (≈ 20.6 µg/mL)	8.4 µM (≈ 3.46 µg/mL)	< 4.26	> 100 µM	inactive
Nc1nc(SC2CCCC2)nc2c1c(=O)ccn2CCO	6.46			< 4.26		inactive
Nc1nc(OCCF)nc2c1c(=O)ccn2CCO	5.71			< 4.26		inactive
C[C@H]1CC[C@H](Oc2nc(N)c3c(=O)ccn(Cc4ccc(C(=O)O)s4)c3n2)CC1	6.31	> 100 µM	83.3 µM (≈ 34.5 µg/mL)	< 4.26	25 µM (≈ 10.4 µg/mL)	inactive
Nc1nc(OC(CF)CF)nc2c1c(=O)ccn2CCO	6.51			< 4.26		inactive
C[C@H]1CC[C@H](Oc2nc(N)c3c(=O)ccn([C@@H]4CCC[C@H]4O)c3n2)CC1	6.72	37.5 µM (≈ 13.4 µg/mL)	3.1 µM (≈ 1.11 µg/mL)	< 4.26	100 µM (≈ 35.8 µg/mL)	inactive
Nc1nc(OC2CCC(Cl)CC2)nc2c1c(=O)ccn2[C@H]1CCC[C@@H]1O (relative stereo)	7.39	50 µM (≈ 18.9 µg/mL)	6.3 µM (≈ 2.39 µg/mL)	< 4.26	75 µM (≈ 28.4 µg/mL)	inactive
Nc1nc(SC2CCCC2)nc2c1c(=O)ccn2[C@H]1CCC[C@@H]1O (relative stereo)	7.20	25 µM (≈ 8.66 µg/mL)	> 100 µM	< 4.26	> 100 µM	inactive
C[C@H]1CC[C@H](Oc2nc(N)c3c(=O)ccn(C4[C@@H](O)CC[C@@H]4O)c3n2)CC1	7.12	25 µM (≈ 9.36 µg/mL)	5.2 µM (≈ 1.95 µg/mL)	< 4.26	100 µM (≈ 37.4 µg/mL)	inactive
C[C@H]1CC[C@H](Oc2nc(N)c3c(=O)ccn([C@H]4CCC[C@@H]4O)c3n2)CC1	7.41	18.8 µM (≈ 6.74 µg/mL)	6.3 µM (≈ 2.26 µg/mL)	< 4.26	75 µM (≈ 26.9 µg/mL)	inactive
C[C@H]1CCCC[C@H]1Oc1nc(N)c2c(=O)ccn([C@@H]3CCCC[C@H]3O)c2n1	6.96	100 µM (≈ 37.2 µg/mL)	75 µM (≈ 27.9 µg/mL)	< 4.26		inactive
CC1CCC(Oc2nc(N)c3c(=O)ccn([C@H]4CCC[C@@H]4O)c3n2)C(C)C1 (relative stereo)	6.77	> 100 µM	16.7 µM (≈ 6.22 µg/mL)	< 4.26	50 µM (≈ 18.6 µg/mL)	inactive
Nc1nc(NC2CCCC2)nc2c1c(=O)ccn2CCO	< 5.00			< 4.26		inactive
C[C@H]1CCCC[C@H]1Oc1nc(N)c2c(=O)ccn([C@@H]3CC[C@@H]4C[C@H]3OC4=O)c2n1	7.55	> 100 µM	> 100 µM	< 4.26		inactive
C[C@H]1CC[C@H](Oc2nc(N)c3c(=O)ccn([C@H]4CC(C(=O)O)C[C@@H]4O)c3n2)CC1 (stereo partly specified)	7.29	> 100 µM	83.3 µM (≈ 33.5 µg/mL)	< 4.26	> 100 µM	inactive
Nc1nc(OC2CCC3(CC2)OCCO3)nc2c1c(=O)ccn2[C@H]1CCC[C@@H]1O (relative stereo)	7.05	> 100 µM	50 µM (≈ 20.1 µg/mL)	< 4.26	> 100 µM	inactive
C[C@H]1CC[C@H](Oc2nc(N)c3c(=O)ccn([C@H]4CC(C(N)=O)C[C@@H]4O)c3n2)CC1 (stereo partly specified)	7.32	> 100 µM	20.8 µM (≈ 8.35 µg/mL)	< 4.26	100 µM (≈ 40.1 µg/mL)	inactive
CC(C)Oc1nc(N)c2c(=O)ccn(CCO)c2n1	5.97			< 4.26		inactive
C[C@H]1CC[C@H](Oc2nc(N)c3c(=O)ccn([C@H]4CC[C@H](O)[C@@H]4O)c3n2)CC1	6.65	25 µM (≈ 9.36 µg/mL)	4.2 µM (≈ 1.57 µg/mL)	< 4.26	> 100 µM	inactive

Now from value to compound, other results behind:

pIC50 [1]	MIC [2]	MIC [4]	pIC50 [5]	MIC [6]	Structure (SMILES)	Activity [3]
7.10	> 100 µM	> 100 µM	< 4.26		C[C@H]1CCCC[C@H]1Oc1nc(N)c2c(=O)ccn(CC(O)CO)c2n1 (relative stereo)	inactive
7.44	> 100 µM	> 100 µM	< 4.26		C[C@H]1CCCC[C@H]1Oc1nc(N)c2c(=O)ccn(CCC#N)c2n1 (relative stereo)	inactive
7.72	> 100 µM	> 100 µM	< 4.26		C[C@H]1CCCC[C@H]1Oc1nc(N)c2c(=O)ccn(Cc3ccc(C(=O)O)cc3)c2n1 (relative stereo)	inactive
6.38			< 4.26		C[C@H]1CC[C@H](Oc2nc(N)c3c(=O)ccn(CCO)c3n2)CC1	inactive
7.17	> 100 µM	> 100 µM	< 4.26		C[C@H]1CCCC[C@H]1Oc1nc(N)c2c(=O)ccn(CC3C[C@@H](O)[C@@H](O)C3)c2n1 (stereo partly specified)	inactive
7.24			< 4.26		C[C@@H]1CCCC[C@@H]1Oc1nc(N)c2c(=O)ccn(CCO)c2n1 (relative stereo)	inactive
7.70	> 100 µM	> 100 µM	< 4.26		C[C@H]1CCCC[C@H]1Oc1nc(N)c2c(=O)ccn(CC#N)c2n1 (relative stereo)	inactive
7.70	> 100 µM	> 100 µM	< 4.26		C[C@H]1CCCC[C@H]1Oc1nc(N)c2c(=O)ccn(CC3CC=CC3)c2n1 (relative stereo)	inactive
7.55	> 100 µM	100 µM (≈ 35 µg/mL)	< 4.26		C[C@H]1CCCC[C@H]1Oc1nc(N)c2c(=O)ccn(CC(O)CF)c2n1 (relative stereo)	inactive
7.42	100 µM (≈ 36 µg/mL)	100 µM (≈ 36 µg/mL)	< 4.26		C[C@H]1CCCC[C@H]1Oc1nc(N)c2c(=O)ccn([C@@H]3COC[C@H]3O)c2n1	inactive
7.40	100 µM (≈ 35.8 µg/mL)	50 µM (≈ 17.9 µg/mL)	< 4.26		C[C@H]1CCCC[C@H]1Oc1nc(N)c2c(=O)ccn([C@@H]3CCC[C@H]3O)c2n1	inactive
7.44	> 100 µM	> 100 µM	< 4.26		C[C@H]1CCCC[C@H]1Oc1nc(N)c2c(=O)ccn(Cc3cn[nH]c3)c2n1 (relative stereo)	inactive
6.29			< 4.26		Nc1nc(OC2CCCC2)nc2c1c(=O)ccn2CCO	inactive
